Literature values as cited in US20020022041A1, “Composition and process for treating pollution” (priority 2000, published 2002).

Details: non-toxic as defined by Section 313 Title III of SARA

Row | SMILES | Toxicity
1 | CCCCOCCOCCO [2-, 2-(2-butoxyethoxy)ethanol] | Non toxic
2 | CCCCCCCCCCCCOP(=O)(O)O [Lauryl Phosphate Soln, Lauryl Phosphate] | Non toxic
3 | CCCCCCCC/C=C\CCCCCCCC(=O)O [Oleic Acid] | Non toxic
